Results taken from patent publication US8765747B2, “Fused 2-aminothiazole compounds” (Dana-Farber Cancer Institute, Inc., priority 2009, dated 2014).

Assays:
32D-BCR-Abl-T3151 = assay: Apoptosis assay; format: cell-based, murine; design: unit not given here; details: approximately 3 days of treatment
Excerpt: (§1) Ba/F3.p210 cells were obtained by transfecting the IL-3-dependent marine hematopoietic Ba/F3 cell line with a pGD vector containing p210BCR-ABL (B2A2) cDNA (Daley and Baltimore, 1988; Sattler et al., 1996; Okuda et al., 1996). Murine hematopoietic 32D cells were transduced with retrovirus to express p210 Bcr-ABL (32D.p210 cells) (Matulonis et al., 1993); the 32D-T315I cell line was transfected by electroporation with the imatinib resistant BCR-ABL construct (pCI-neo Mammalian Expression Vector; Promega (#E1841) harboring the point mutation T315I (Weisberg et al., 2005). Ba/F3 cells were stably transfected by electroporation with imatinib-resistant BCR-ABL constructs (pCI-neo Mammalian Expression Vector; Promega (#E1841) harboring the point mutations T315I, F317L, F486S, and M351T; transfectants were selected for neomycin resistance and IL-3-independent growth (Weisberg et al., 2005). Ba/F3 cells were stably transfected by electroporation with BCR-ABL point mutants identified in a random mutagenesis screen for BCR-ABL point mutants conferring resistance to nilotinib: Q252H, E292K, Y253C, Y253H, E255K, and V289L (Ray et al., 2007). Ba/F3 cells were made to express Tel-PDGFRβ as described by Golub et al., 1994, and Carroll et al., 1996. Constructs of D842V-PDGFRα and V561D-PDGFRα cDNA cloned into pcDNA3.1 were stably transfected into Ba/F3 cells by electroporation, and cells were selected for neomycin resistance and IL3-independent growth as described by Weisberg et al., 2006.
(§2) All cell lines were cultured with 5% CO2 at 37° C. in RPMI (Mediatech, Inc., Herndon, Va.) with 10% fetal calf serum (FCS) and supplemented with 1% L-glutamine. Parental Ba/F3 cells were similarly cultured with 15% WEHI-conditioned medium as a source of IL-3. Transfected cell lines were cultured in media supplemented with 1 mg/ml G418.
(§3) Cell cycle analysis was performed using approximately 500,000 cells, which were centrifuged at 1500 rpm for 5 min, washed in PBS, and the pellet re-suspended in 500 μl of propidium iodide solution (50 μg/ml propidium iodide, 0.1% NP-40, 0.1% sodium citrate). The mixture was stored in the dark at 4° C. for a minimum of 15 min, and then analyzed by flow cytometry. Apoptosis of drug-treated cells was measured using the Annexin-V-Fluos Staining Kit (Boehringer Mannheim, Indianapolis).
(§4) Cells cultured in the presence or absence of drug were washed 1× with phosphate-buffered saline (PBS) and centrifuged for 5 min at 1500 rpm. Washed cell pellets were re-suspended in 100 μl of 20% Annexin-V-fluorescein labeling reagent and 20% propidium iodide (PI) in HEPES buffer. Cells were incubated for 15 min at room temperature, followed by dilution with 0.8 ml of HEPES buffer. Samples were then analyzed by flow cytometry. As controls, cells were incubated for 15 min with PI alone, Annexin-V-fluorescein labeling reagent alone, or HEPES buffer, and then diluted with HEPES buffer and analyzed by flow cytometry.

32D-BCR-Abl = assay: Apoptosis assay; format: cell-based, murine; design: unit not given here; details: approximately 3 days of treatment
Excerpt: as §1, §2, §3, §4

Ba/F3-PDGFRα-T674I = assay: Apoptosis assay; format: cell-based, murine; design: unit not given here; details: approximately 3 days of treatment
Method: as §2, §3, §4

Ba/F3-PDGFRα-T674M = assay: Apoptosis assay; format: cell-based, murine; design: unit not given here; details: approximately 3 days of treatment
Method: as §2, §3, §4

Ba/F3-kit-T6701 = assay: Apoptosis assay; format: cell-based, murine; design: unit not given here; details: approximately 3 days of treatment
Method: as §2, §3, §4

ABL1 = ABL1 (Homo sapiens (Human), UniProt P00519); assay: KINOMEscan competition binding assay
Method: (§5) KINOMEscan™ (Ambit Biosciences, San Diego, Calif.), a high-throughput method for screening small molecular agents against a large panel of human kinases, was utilized for compound 2.
(§6) Kinases where significant binding affinity was detected at 10 μM were retested in dose-response format to determine a dissociation constant. The size of the red circle is proportion to Kd. […] The compound binds in the “DFG-out” conformation as evident by the position of F405. Ample space is available adjacent to the gatekeeper residue T338 providing a rationale for the tolerance for a larger amino acid at this position.

ABL1(T315I) = ABL1(T315I) (Homo sapiens (Human), UniProt P00519, T315I); assay: KINOMEscan competition binding assay
Method: as §5, §6

BRAF = BRAF (Homo sapiens (Human), UniProt P15056); assay: KINOMEscan competition binding assay
Method: as §5, §6

CDK2 = CDK2 (Homo sapiens (Human), UniProt P24941); assay: KINOMEscan competition binding assay
Method: as §5, §6

CDK3 = CDK3 (Homo sapiens (Human), UniProt Q00526); assay: KINOMEscan competition binding assay
Method: as §5, §6

CDK5 = CDK5 (Homo sapiens (Human), UniProt Q00535); assay: KINOMEscan competition binding assay
Method: as §5, §6

CDK7 = CDK7 (Homo sapiens (Human), UniProt P50613); assay: KINOMEscan competition binding assay
Method: as §5, §6

DDR1 = DDR1 (Homo sapiens (Human), UniProt Q08345); assay: KINOMEscan competition binding assay
Method: as §5, §6

FLT1 = FLT1 (Homo sapiens (Human), UniProt P17948); assay: KINOMEscan competition binding assay
Method: as §5, §6

FLT3 = FLT3 (Homo sapiens (Human), UniProt P36888); assay: KINOMEscan competition binding assay
Method: as §5, §6

FLT4 = FLT4 (Homo sapiens (Human), UniProt P35916); assay: KINOMEscan competition binding assay
Method: as §5, §6

HIPK1 = HIPK1 (Homo sapiens (Human), UniProt Q86Z02); assay: KINOMEscan competition binding assay
Method: as §5, §6

KIT = KIT (Homo sapiens (Human), UniProt P10721); assay: KINOMEscan competition binding assay
Method: as §5, §6

LOK = LOK (Homo sapiens (Human), UniProt O94804); assay: KINOMEscan competition binding assay
Method: as §5, §6

PDGFRA = PDGFRA (Homo sapiens (Human), UniProt P16234); assay: KINOMEscan competition binding assay
Method: as §5, §6

PDGFRB = PDGFRB (Homo sapiens (Human), UniProt P09619); assay: KINOMEscan competition binding assay
Method: as §5, §6

RET = RET (Homo sapiens (Human), UniProt P07949); assay: KINOMEscan competition binding assay
Method: as §5, §6

TIE2 = TIE2 (Homo sapiens (Human), UniProt Q02763); assay: KINOMEscan competition binding assay
Method: as §5, §6

VEGFR2 = VEGFR2 (Homo sapiens (Human), UniProt P35968); assay: KINOMEscan competition binding assay
Method: as §5, §6

p38-gamma = p38-gamma (Homo sapiens (Human), UniProt P53778); assay: KINOMEscan competition binding assay
Method: as §5, §6

HIPK1, sequence (Q86Z02 whole entry): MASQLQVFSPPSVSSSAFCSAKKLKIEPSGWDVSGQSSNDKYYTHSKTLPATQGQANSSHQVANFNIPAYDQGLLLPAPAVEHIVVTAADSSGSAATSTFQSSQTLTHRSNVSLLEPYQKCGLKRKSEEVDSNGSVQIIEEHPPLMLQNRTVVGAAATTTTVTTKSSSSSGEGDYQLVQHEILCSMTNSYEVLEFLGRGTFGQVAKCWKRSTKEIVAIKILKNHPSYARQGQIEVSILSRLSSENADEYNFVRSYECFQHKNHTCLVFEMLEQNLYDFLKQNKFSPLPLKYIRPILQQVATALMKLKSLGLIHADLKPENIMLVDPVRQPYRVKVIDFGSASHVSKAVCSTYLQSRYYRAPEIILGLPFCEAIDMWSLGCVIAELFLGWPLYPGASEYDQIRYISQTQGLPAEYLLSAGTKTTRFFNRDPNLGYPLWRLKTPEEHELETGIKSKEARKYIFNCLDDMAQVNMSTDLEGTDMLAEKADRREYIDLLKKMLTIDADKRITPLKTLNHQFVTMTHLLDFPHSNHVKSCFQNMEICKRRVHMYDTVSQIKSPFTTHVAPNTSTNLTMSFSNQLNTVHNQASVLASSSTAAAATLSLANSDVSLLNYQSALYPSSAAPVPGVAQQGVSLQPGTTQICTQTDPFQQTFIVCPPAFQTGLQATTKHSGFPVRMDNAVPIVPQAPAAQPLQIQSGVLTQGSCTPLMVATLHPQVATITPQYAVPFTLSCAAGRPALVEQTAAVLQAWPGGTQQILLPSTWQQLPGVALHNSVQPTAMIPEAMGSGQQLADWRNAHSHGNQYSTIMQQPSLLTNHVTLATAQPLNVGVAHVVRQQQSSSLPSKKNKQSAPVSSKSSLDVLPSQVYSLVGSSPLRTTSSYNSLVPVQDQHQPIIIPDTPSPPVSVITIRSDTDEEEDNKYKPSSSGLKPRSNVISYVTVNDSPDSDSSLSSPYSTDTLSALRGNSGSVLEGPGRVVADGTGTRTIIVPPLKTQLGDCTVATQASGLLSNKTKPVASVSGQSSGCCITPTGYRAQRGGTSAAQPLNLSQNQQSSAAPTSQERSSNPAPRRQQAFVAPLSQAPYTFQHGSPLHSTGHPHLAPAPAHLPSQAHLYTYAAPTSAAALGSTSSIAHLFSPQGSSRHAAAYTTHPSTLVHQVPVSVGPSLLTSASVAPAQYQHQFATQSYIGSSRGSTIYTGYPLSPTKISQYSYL
CDK5, sequence (Q00535 whole entry): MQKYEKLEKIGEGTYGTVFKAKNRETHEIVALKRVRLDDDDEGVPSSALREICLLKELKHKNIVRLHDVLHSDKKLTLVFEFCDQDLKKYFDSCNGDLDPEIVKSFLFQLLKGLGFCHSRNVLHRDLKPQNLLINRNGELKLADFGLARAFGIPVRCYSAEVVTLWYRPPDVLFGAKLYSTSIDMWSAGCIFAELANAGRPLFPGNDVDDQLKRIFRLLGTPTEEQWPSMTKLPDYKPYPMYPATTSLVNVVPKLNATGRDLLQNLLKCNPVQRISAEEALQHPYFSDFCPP
DDR1, sequence (Q08345 19-913): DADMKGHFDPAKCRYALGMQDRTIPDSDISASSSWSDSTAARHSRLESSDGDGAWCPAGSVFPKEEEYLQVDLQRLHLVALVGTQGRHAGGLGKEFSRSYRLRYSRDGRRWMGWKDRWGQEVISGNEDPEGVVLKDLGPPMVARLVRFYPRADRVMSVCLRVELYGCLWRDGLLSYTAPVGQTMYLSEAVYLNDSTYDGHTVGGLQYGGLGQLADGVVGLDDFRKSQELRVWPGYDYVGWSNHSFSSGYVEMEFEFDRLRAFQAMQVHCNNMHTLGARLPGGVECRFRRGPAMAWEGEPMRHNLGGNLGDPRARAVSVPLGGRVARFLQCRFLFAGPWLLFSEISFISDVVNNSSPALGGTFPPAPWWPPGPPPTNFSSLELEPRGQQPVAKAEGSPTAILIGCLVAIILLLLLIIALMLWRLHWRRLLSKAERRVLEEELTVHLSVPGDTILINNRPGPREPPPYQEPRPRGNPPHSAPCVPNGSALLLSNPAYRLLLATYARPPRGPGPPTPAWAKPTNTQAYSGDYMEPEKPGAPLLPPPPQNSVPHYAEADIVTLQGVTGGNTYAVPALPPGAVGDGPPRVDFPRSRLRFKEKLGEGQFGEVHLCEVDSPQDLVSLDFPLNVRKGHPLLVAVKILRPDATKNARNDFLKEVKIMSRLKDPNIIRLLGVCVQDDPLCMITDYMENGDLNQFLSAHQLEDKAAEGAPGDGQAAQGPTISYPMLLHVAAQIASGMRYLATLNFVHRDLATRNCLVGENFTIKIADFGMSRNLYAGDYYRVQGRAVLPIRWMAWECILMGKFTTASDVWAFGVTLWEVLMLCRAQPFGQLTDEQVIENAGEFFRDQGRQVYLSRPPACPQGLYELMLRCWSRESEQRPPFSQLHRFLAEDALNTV
PDGFRB, sequence (P09619 33-1106): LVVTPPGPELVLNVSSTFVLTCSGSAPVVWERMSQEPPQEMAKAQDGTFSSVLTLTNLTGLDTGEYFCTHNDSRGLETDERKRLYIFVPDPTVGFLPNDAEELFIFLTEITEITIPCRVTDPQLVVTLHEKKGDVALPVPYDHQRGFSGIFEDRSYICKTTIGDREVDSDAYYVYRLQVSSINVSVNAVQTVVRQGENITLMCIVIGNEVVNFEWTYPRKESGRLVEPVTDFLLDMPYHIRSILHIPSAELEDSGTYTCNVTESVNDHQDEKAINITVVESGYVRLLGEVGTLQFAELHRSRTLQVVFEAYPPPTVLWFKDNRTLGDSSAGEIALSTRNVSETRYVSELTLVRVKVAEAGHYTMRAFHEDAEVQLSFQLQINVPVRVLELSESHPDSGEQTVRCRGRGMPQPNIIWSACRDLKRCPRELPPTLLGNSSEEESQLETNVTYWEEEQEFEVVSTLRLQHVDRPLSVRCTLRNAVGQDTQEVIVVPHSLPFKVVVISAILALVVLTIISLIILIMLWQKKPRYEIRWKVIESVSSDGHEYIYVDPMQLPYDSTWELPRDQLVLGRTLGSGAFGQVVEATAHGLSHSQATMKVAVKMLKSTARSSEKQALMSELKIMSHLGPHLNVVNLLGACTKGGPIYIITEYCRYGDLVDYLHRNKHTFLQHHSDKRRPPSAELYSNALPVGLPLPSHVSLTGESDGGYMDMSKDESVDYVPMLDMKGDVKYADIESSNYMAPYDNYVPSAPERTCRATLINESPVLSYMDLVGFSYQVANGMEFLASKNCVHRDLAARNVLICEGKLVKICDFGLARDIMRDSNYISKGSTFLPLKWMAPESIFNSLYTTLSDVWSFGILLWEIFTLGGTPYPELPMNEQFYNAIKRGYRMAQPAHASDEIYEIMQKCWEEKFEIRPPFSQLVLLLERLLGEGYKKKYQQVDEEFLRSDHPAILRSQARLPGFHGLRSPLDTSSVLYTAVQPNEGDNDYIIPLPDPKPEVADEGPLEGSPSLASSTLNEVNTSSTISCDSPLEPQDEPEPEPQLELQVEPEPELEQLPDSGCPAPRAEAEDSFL
CDK7, sequence (P50613 whole entry): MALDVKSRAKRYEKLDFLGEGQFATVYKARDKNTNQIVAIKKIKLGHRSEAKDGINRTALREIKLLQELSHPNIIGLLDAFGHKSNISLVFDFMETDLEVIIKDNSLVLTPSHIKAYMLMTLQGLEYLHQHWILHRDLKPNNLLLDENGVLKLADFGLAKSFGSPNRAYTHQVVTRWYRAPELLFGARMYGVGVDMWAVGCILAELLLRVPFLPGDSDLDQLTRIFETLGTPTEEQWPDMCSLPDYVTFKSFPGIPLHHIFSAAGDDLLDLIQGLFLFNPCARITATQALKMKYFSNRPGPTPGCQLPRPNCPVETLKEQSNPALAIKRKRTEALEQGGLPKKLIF
p38-gamma, sequence (P53778 whole entry): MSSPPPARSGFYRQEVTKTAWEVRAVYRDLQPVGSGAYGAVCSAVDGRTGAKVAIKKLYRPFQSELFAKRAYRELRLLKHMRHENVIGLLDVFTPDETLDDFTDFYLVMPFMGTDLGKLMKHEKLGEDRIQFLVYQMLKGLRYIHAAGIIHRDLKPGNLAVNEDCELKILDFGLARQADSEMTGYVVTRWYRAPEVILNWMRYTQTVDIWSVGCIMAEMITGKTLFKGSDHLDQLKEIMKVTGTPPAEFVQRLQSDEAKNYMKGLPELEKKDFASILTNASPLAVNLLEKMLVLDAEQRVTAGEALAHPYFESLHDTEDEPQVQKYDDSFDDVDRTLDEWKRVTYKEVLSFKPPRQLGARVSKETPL
BRAF, sequence (P15056 whole entry): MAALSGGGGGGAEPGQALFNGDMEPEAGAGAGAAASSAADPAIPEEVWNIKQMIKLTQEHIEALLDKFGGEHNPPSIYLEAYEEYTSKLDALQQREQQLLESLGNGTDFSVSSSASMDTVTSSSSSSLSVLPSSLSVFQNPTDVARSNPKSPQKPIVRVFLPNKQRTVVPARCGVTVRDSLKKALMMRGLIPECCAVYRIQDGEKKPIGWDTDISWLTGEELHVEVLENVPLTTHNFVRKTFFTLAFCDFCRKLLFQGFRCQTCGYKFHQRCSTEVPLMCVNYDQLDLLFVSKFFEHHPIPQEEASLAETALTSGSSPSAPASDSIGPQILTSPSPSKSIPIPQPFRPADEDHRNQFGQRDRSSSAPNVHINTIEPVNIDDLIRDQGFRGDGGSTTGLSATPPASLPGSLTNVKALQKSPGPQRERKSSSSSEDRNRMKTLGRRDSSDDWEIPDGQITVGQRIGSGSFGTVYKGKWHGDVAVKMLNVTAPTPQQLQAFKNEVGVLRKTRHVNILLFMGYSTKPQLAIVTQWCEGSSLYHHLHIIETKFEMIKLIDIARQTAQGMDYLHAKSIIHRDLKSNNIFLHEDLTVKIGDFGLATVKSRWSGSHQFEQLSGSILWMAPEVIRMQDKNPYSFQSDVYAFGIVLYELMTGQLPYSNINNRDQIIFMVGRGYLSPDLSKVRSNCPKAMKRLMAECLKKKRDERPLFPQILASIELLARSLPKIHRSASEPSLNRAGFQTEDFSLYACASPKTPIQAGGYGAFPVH

## CCN1CCN(Cc2ccc(NC(=O)c3cccc(-c4ccc5nc(NC(=O)C6CC6)sc5n4)c3)cc2C(F)(F)F)CC1 [Compound 2]
32D-BCR-Abl-T3151; 0.1 μM
  Apoptotic: 9.8
  Necrotic: 0.3
  Viable: 89.9
32D-BCR-Abl-T3151; 1.0 μM
  Apoptotic: 72.7
  Necrotic: 0
  Viable: 27.2
32D-BCR-Abl; 0.01 μM
  Apoptotic: 5.8
  Necrotic: 0.2
  Viable: 94
32D-BCR-Abl; 0.1 μM
  Apoptotic: 52.3
  Necrotic: 0.6
  Viable: 47.1
32D-BCR-Abl; 1.0 μM
  Apoptotic: 95.3
  Necrotic: 0.1
  Viable: 4.6
Ba/F3-PDGFRα-T674I; 0.01 μM
  Apoptotic: 38.1
  Necrotic: 0.1
  Viable: 61.9
Ba/F3-PDGFRα-T674I; 0.1 μM
  Apoptotic: 84.7
  Necrotic: 0.2
  Viable: 15.2
Ba/F3-PDGFRα-T674I; 1.0 μM
  Apoptotic: 94.1
  Necrotic: 0
  Viable: 5.8
Ba/F3-PDGFRα-T674M; 0.01 μM
  Apoptotic: 9
  Necrotic: 0
  Viable: 91
Ba/F3-PDGFRα-T674M; 0.1 μM
  Apoptotic: 65.2
  Necrotic: 0
  Viable: 34.7
Ba/F3-PDGFRα-T674M; 1.0 μM
  Apoptotic: 86.80
  Necrotic: 0.1
  Viable: 13.2
Ba/F3-kit-T6701; 0.01 μM
  Apoptotic: 2.3
  Necrotic: 0
  Viable: 97.7
Ba/F3-kit-T6701; 0.1 μM
  Apoptotic: 3.1
  Necrotic: 0
  Viable: 96.9
Ba/F3-kit-T6701; 1.0 μM
  Apoptotic: 8.4
  Necrotic: 0
  Viable: 91.6
ABL1
  Kd: 3.3 nM
ABL1(T315I)
  Kd: 1.2 nM
BRAF
  Kd: 36 nM
CDK2
  Kd: 840 nM
CDK3
  Kd: 250 nM
CDK5
  Kd: 150 nM
CDK7
  Kd: 13 nM
DDR1
  Kd: 3.4 nM
FLT1
  Kd: 74 nM
FLT3
  Kd: 2.3 nM
FLT4
  Kd: 31 nM
HIPK1
  Kd: 34 nM
KIT
  Kd: 2.9 nM
LOK
  Kd: 9.5 nM
PDGFRA
  Kd: 7.7 nM
PDGFRB
  Kd: 1.8 nM
RET
  Kd: 5.6 nM
TIE2
  Kd: 57 nM
VEGFR2
  Kd: 58 nM
p38-gamma
  Kd: 100 nM
